Target: T1, human TGR5 (Homo sapiens, UniProt Q8TDU6)
T1 construct: expressed in transfected cells; host or cells: BHK cells
T1 sequence (Q8TDU6 1-330): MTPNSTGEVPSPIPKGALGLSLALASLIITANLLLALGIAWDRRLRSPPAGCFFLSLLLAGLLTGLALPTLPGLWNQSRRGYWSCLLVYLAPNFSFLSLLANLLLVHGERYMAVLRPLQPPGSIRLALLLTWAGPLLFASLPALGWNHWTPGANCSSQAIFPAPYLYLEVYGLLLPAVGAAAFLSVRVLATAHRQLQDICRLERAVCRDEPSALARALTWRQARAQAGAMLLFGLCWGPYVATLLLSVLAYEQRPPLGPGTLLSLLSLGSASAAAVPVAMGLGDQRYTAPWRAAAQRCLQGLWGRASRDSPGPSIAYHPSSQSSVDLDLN
Experiment: cAMP production in BHK cells expressing the human TGR5 (CisBio cAMP kit), normalized to LCA = 100%
Format: cell-based
Conditions: BHK cells expressing human TGR5, 30 minutes incubation
Experimental: The activity of the natural products, with respect to their TGR5 activating capacities, was analyzed as follows:
BHK cells, expressing the human TGR5, were seeded into 384-well plates and grown overnight. The next day, natural test compounds (and LCA as positive control) were incubated on the cells for 30 minutes. As TGR5 couples to […] proteins, the increase of cellular cAMP production, as a measure for TGR5 activity, was analyzed by using a commercially available cAMP kit (CisBio international). The cAMP production was measured according to the kit manufacturer's protocol. Data were normalized by setting the cAMP production induced by LCA to 100% activity. EC50 values were determined by using the GraphPad PrismSoftware (Graph. Pad Software Inc.).

EC50 (unit inferred) | EC50 | SMILES
0.4 µM |  | CCC(C)C1OC(=O)C(Cc2ccccc2)NC(=O)C(C)C/C(C)=C/C(C)C(O)/C(C)=C/C1C (centres unmarked) [A4, (8E,12E)-3-benzyl-15-sec-butyl-11-hydroxy-6,8,10,12,14-pentamethyl-1-oxa-4-azacyclopentadeca-8,12-diene-2,5-dione]
 | 3 µM | C=CC1C(CO)=CCC2C1CCC1C(C)(C)C(=O)CCC21C (centres unmarked) [A1, 17-hydroxy-12,15-cleistanthadiene-3-one]

From patent US20110092582A1, “New Terpenes And Macrocycles” (MERCK PATENT GESELLSCHAFT, priority 2008, published 2011)
